Laboratory results from patent EP0761667A1, “Heterocyclic substituted pseudopeptides” (BAYER AG, priority 1995, dated 1997).
pIC50: −log10 of the molar value. Like-named read-outs stand apart in the source and are kept apart here.

Columns and labels:
[1] = molecular target: T1, HIV-1-Protease (Human immunodeficiency virus type 1 group M subtype B, UniProt P04585); assay: HIV-specific protease enzyme test (purified HIV protease, synthetic peptide substrate, RP-HPLC analysis of cleavage products); assay type: biochemical
T1 construct: Gereinigte HIV-Protease wurde mit synthetischem Peptid
Excerpt: Es wurde überraschend gefunden, daß die Verbindungen der allgemeinen Formel (I) eine außerordentlich starke Wirkung gegen Retroviren besitzen. Dies wird mit einem HIV-spezifischen Protease-Enzymtest belegt.
Die Ergebnisse der unten aufgeführten Beispiele wurden nach dem in der folgenden Literaturangabe [vgl. Hansen, J., Billich, S., Schulze, T., Sukrow, S. and Mölling, K. (1988), EMBO Journal, Vol, 7, No. 6, pp. 1785 - 1791] beschriebenen HIV-Testsystem ermittelt: Gereinigte HIV-Protease wurde mit synthetischem Peptid, das eine Schnittstelle im Gag-Precursor-Protein imitiert und eine in vivo-Spaltstelle der HIV-Protease darstellt, inkubiert. Die entstandenen Spaltprodukte des synthetischen Peptids wurden über Reverse Phase High Performance Liquid Chromatography (RP-HPLC) analysiert. […]

[2] = system: HIV; assay: HIV infection in cell culture (PBL), microscopic evaluation of syncytia formation; assay type: cell-based; details: HIV-infected normal human blood lymphocytes (PBL's), day 3 to 6 after infection; for PBL IC95: suppression of virus-induced syncytia; for pIC50: Human immunodeficiency virus 1, Lymphocyte, 72 h, 50% suppression of virus-induced syncytia
Experimental: HIV-Infektion in Zellkultur
Der HIV-Test wurde mit geringen Modifikationen nach der Methode von Pauwels et al. [vgl. Journal of Virological Methods 20, (1988), 309-321] durchgeführt.
Normale menschliche Blutlymphozyten (PBL's) wurden über Ficoll-Hypaque angereichert und im RPMI 1640, 20% fötales Kälberserum mit Phytohaemagglutinin (90 µg/ml) und Interleukin-2 (40 U/ml) stimuliert. Zur Infektion mit dem infektiösen HIV wurden PBL's pelletiert und das Zellpellet wurde anschließend in 1 ml HIV-Virusadsorptionslösung suspendiert und 1 Stunde bei 37°C inkubiert.
Die Virusadsorptionslösung wurde zentrifugiert und das infizierte Zellpellet in Wachstumsmedium aufgenommen, so daß 1 x 10^5 Zellen pro ml eingestellt waren. Die derart infizierten Zellen wurden zu 1 x 10^4 Zellen/Napf in die Näpfe von 96er Mikrotiterplatten pipettiert.
Die erste vertikale Reihe der Mikrotiterplatte enthielt nur Wachstumsmedium und Zellen, die nicht infiziert, aber ansonsten genauso wie oben beschrieben, behandelt worden waren (Zellkontrolle). Die zweite vertikale Reihe der Mikrotiterplatte erhielt nur HIV-infizierte Zellen (Viruskontrolle) in Wachstumsmedium. Die übrigen Näpfe enthielten die erfindungsgemäßen Verbindungen in unterschiedlichen Konzentrationen, ausgehend von den Näpfen der 3. vertikalen Reihe der Mikrotiterplatte, von der die Prüfsubstanzen in 2er Schritten 2^10fach verdünnt wurden.
Die Testansätze wurden so lange bei 37°C inkubiert, bis in der unbehandelten Viruskontrolle die für das HIV typische Syncytienbildung auftrat (zwischen Tag 3 und 6 nach Infektion), die dann mikroskopisch ausgewertet wurde. In der unbehandelten Viruskontrolle resultierten unter diesen Testbedingungen etwa 20 Syncytien, während die unbehandelte Zellkontrolle keine Syncytien aufwies.
Die IC50-Werte wurden als die Konzentration der behandelten und infizierten Zellen ermittelt, bei der 50% (ca. 10 Syncytien) der virusinduzierten Syncytien durch die Behandlung mit der erfindungsgemäßen Verbindung unterdrückt waren. […]

[3] = purified HIV protease, synthetic peptide imitating a Gag precursor cleavage site
[4] = purified HIV protease, synthetic peptide imitating a Gag precursor cleavage site, concentration giving 50% inhibition of protease activity, read-out: HIV-1-Protease-Inhibition IC50

SMILES: O=C(N[C@@H](Cc1ccccc1)[C@H](O)CN1[C@H](C(F)(F)F)C[C@@H]2CCC[C@@H]21)OC1C=CS(=O)(=O)C1 (stereo partly shown) [Beispiel 8]
- HIV-1-Protease-Inhibition IC95 [1, 3]: 4,1 x 10^-8 Mol/l
- pIC50 [1, 4]: 8.49
- PBL IC95 [2]: >2e-05 mol/L
- pIC50 [2]: 4.77

SMILES: O=C(N[C@@H](Cc1ccccc1)[C@H](O)CN1[C@H](C(F)(F)F)C[C@@H]2CCC[C@@H]21)O[C@H]1CCOC1 [Beispiel 6]
- HIV-1-Protease-Inhibition IC95 [1, 3]: 5,0 x 10^-8 Mol/l
- pIC50 [1, 4]: 7.60
- PBL IC95 [2]: 1,3 x 10^-5 Mol/l
- pIC50 [2]: 5.55

SMILES: O=C(N[C@@H](Cc1ccccc1)[C@H](O)CN1[C@H](C(F)(F)F)C[C@@H]2CCC[C@@H]21)OC1CCOC1 (stereo partly drawn) [Beispiel 5, (2R,3S)-3-(Tetrahydrofuran-3-yl-oxycarbonyl)-amino-1-{(S,S,S)-3-trifluormethyl-2-azabicyclo[3.3.0]octan-2-yl}-2-hydroxy-4-phenylbutan]
- pIC50 [1]: 8.39
- HIV-1-Protease-Inhibition IC95 [1, 3]: 4,7 x 10^-8 Mol/l
- PBL IC95 [2]: 2,2 x 10^-5 Mol/l
- pIC50 [2]: 4.85

SMILES: O=C(N[C@@H](Cc1ccccc1)[C@H](O)CN1[C@H](C(F)(F)F)C[C@@H]2CCC[C@@H]21)OC1CCS(=O)(=O)C1 (stereo partly shown) [Beispiel 7]
- pIC50 [1, 4]: 7.60
- pIC50 [2]: 5.21

SMILES: NC(=O)C[C@H](NC(=O)OC1CCOC1)C(=O)N[C@@H](Cc1ccccc1)[C@H](O)CN1[C@H](C(F)(F)F)C[C@@H]2CCC[C@@H]21 (stereo partly drawn) [Beispiel 1, (2S,3S)-3-(Tetrahydrofuran-3-yl-oxycarbonyl-L-asparaginyl)amino-1-[(S,S,S)-3-trifluormethyl-2-azabicyclo[3.3.0]octan-2-yl}-2-hydroxy-4-phenylbutan]
- pIC50 [1]: 7.52
- HIV-1-Protease-Inhibition IC95 [1, 3]: 3,8 x 10^-7 Mol/l
- PBL IC95 [2]: 3,5 x 10^-6 Mol/l
- pIC50 [2]: 5.66

SMILES: NC(=O)C[C@H](NC(=O)O[C@H]1CCOC1)C(=O)N[C@@H](Cc1ccccc1)[C@H](O)CN1[C@H](C(F)(F)F)C[C@@H]2CCC[C@@H]21 [Beispiel 2]
- HIV-1-Protease-Inhibition IC95 [1, 3]: 3,6 x 10^-9 Mol/l
- pIC50 [1, 4]: 9.57
- PBL IC95 [2]: 3,5 x 10^-6 Mol/l
- pIC50 [2]: 5.70

SMILES: NC(=O)C[C@H](NC(=O)OC1CCS(=O)(=O)C1)C(=O)N[C@@H](Cc1ccccc1)[C@H](O)CN1[C@H](C(F)(F)F)C[C@@H]2CCC[C@@H]21 (stereo partly shown) [Beispiel 3]
- pIC50 [1, 4]: 8.02
- PBL IC95 [2]: 1,9 x 10^-6 Mol/l
- pIC50 [2]: 5.92

SMILES: NC(=O)C[C@H](NC(=O)OC1C=CS(=O)(=O)C1)C(=O)N[C@@H](Cc1ccccc1)[C@H](O)CN1[C@H](C(F)(F)F)C[C@@H]2CCC[C@@H]21 (stereo partly shown) [Beispiel 4]
- HIV-1-Protease-Inhibition IC95 [1, 3]: 3,9 x 10^-9 Mol/l
- pIC50 [1, 4]: 8.68
- pIC50 [2]: < 4.80
